Values joined by “and” are separate entries in the source; they are usually repeats but may differ in a detail not shown here. Identical values can stand only once.
Test system: 855422-203-R-J1-PDC complex spheroid growth
Assay: Anticancer human tumor 855422-203-R-J1-PDC patient-derived bladder carcinoma cell line growth inhibition [AhR]
Conditions: for viability, T/C: stronger effect = lower value; active means viability on the fitted dose curve at most 10% of control; inactive means the rest
Summary of the method: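 Complex tumor spheroids co-cultured with HUVEC and human MSC stroma; AhR antagonists tested in combination with standard-of-care and investigational agents. Top concentration at or near clinical Cmax (else 10 microM), half-log dilutions; growth expressed as percent test/control.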

[1] = curve of first compound, second compound 0.1 µM
[2] = curve of first compound, second compound 0.316 µM
[3] = curve of first compound, second compound 1 µM
[4] = curve of first compound, second compound 3.16 µM
[5] = curve of first compound, second compound 10 µM
[6] = second compound 0.1 µM, first compound 0.00316 µM
[7] = second compound 0.1 µM, first compound 0.01 µM
[8] = second compound 0.1 µM, first compound 0.0316 µM
[9] = second compound 0.1 µM, first compound 0.1 µM
[10] = second compound 0.316 µM, first compound 0.00316 µM
[11] = second compound 0.316 µM, first compound 0.01 µM
[12] = second compound 0.316 µM, first compound 0.0316 µM
[13] = second compound 0.316 µM, first compound 0.1 µM
[14] = second compound 1 µM, first compound 0.00316 µM
[15] = second compound 1 µM, first compound 0.01 µM
[16] = second compound 1 µM, first compound 0.0316 µM
[17] = second compound 1 µM, first compound 0.1 µM
[18] = second compound 3.16 µM, first compound 0.00316 µM
[19] = second compound 3.16 µM, first compound 0.01 µM
[20] = second compound 3.16 µM, first compound 0.0316 µM
[21] = second compound 3.16 µM, first compound 0.1 µM
[22] = second compound 10 µM, first compound 0.00316 µM
[23] = second compound 10 µM, first compound 0.01 µM
[24] = second compound 10 µM, first compound 0.0316 µM
[25] = second compound 10 µM, first compound 0.1 µM
[26] = second compound 0.1 µM, first compound 0.316 µM
[27] = second compound 0.1 µM, first compound 1 µM
[28] = second compound 0.316 µM, first compound 0.316 µM
[29] = second compound 0.316 µM, first compound 1 µM
[30] = second compound 1 µM, first compound 0.316 µM
[31] = second compound 1 µM, first compound 1 µM
[32] = second compound 3.16 µM, first compound 0.316 µM
[33] = second compound 3.16 µM, first compound 1 µM
[34] = second compound 10 µM, first compound 0.316 µM
[35] = second compound 10 µM, first compound 1 µM
[36] = second compound 0.1 µM, first compound 3.16 µM
[37] = second compound 0.1 µM, first compound 10 µM
[38] = second compound 0.316 µM, first compound 3.16 µM
[39] = second compound 0.316 µM, first compound 10 µM
[40] = second compound 1 µM, first compound 3.16 µM
[41] = second compound 1 µM, first compound 10 µM
[42] = second compound 3.16 µM, first compound 3.16 µM
[43] = second compound 3.16 µM, first compound 10 µM
[44] = second compound 10 µM, first compound 3.16 µM
[45] = second compound 10 µM, first compound 10 µM
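Further: spheroids exposed to agents for seven days before readout.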
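Wherever viability, T/C is given: percent of DMSO vehicle control luminescence viability.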

CC[C@@]1(O)C(=O)OCc2c1cc1n(c2=O)Cc2cc3c(CN(C)C)c(O)ccc3nc2-1 + CC(CO)NC(=O)c1cc(-c2ccc(Cl)cc2)nn(-c2cnn(C)c2)c1=O
inactive: viability, T/C (second compound 0.1 µM, first compound 0.000316 µM) 96.7% | viability, T/C (second compound 0.1 µM, first compound 0.001 µM) 97.5% | viability, T/C [6] 93.7% | viability, T/C [7] 102% | viability, T/C [8] 86.5% | viability, T/C [9] 20.9% | viability, T/C (second compound 0.316 µM, first compound 0.000316 µM) 106% | viability, T/C (second compound 0.316 µM, first compound 0.001 µM) 100% | viability, T/C [10] 98.8% | viability, T/C [11] 98.9% | viability, T/C [12] 87.3% | viability, T/C [13] 17.9% | viability, T/C (second compound 1 µM, first compound 0.000316 µM) 104% | viability, T/C (second compound 1 µM, first compound 0.001 µM) 97.8% | viability, T/C [14] 105% | viability, T/C [15] 104% | viability, T/C [16] 84.9% | viability, T/C [17] 15.5% | viability, T/C (second compound 3.16 µM, first compound 0.000316 µM) 99.4% | viability, T/C (second compound 3.16 µM, first compound 0.001 µM) 96.6% | viability, T/C [18] 93% | viability, T/C [19] 95.5% | viability, T/C [20] 83.5% | viability, T/C [21] 13% | viability, T/C (second compound 10 µM, first compound 0.000316 µM) 86.2% | viability, T/C (second compound 10 µM, first compound 0.001 µM) 100% | viability, T/C [22] 102% | viability, T/C [23] 96.3% | viability, T/C [24] 65.8% | viability, T/C [25] 14.8%
54.7 nM: IC50 [4]
58.6 nM: IC50 [2]
56.4 nM: IC50 [3]
45.1 nM: IC50 [5]
60.2 nM: IC50 [1]

CC1COCCN1c1cc(-c2ccnn2C)c2ccnc(-c3ccn[nH]3)c2n1 (configuration not stated) + CC(CO)NC(=O)c1cc(-c2ccc(Cl)cc2)nn(-c2cnn(C)c2)c1=O
237 nM: IC50 [4]
444 nM: IC50 [1]
inactive: viability, T/C [6] 94.2% | viability, T/C [7] 85% | viability, T/C [8] 93.2% | viability, T/C [9] 94.2% | viability, T/C [26] 61.4% | viability, T/C [27] 22.8% | viability, T/C [10] 94.5% | viability, T/C [11] 87.4% | viability, T/C [12] 78.5% | viability, T/C [13] 95.3% | viability, T/C [28] 52.5% | viability, T/C [29] 21.1% | viability, T/C [14] 97.3% | viability, T/C [15] 89.4% | viability, T/C [16] 88% | viability, T/C [17] 84.9% | viability, T/C [30] 47.9% | viability, T/C [31] 17.6% | viability, T/C [18] 85.7% | viability, T/C [19] 91.8% | viability, T/C [20] 90% | viability, T/C [21] 76.5% | viability, T/C [32] 41.2% | viability, T/C [33] 17.7% | viability, T/C [22] 85.5% | viability, T/C [23] 94.7% | viability, T/C [24] 78.5% | viability, T/C [25] 68.9% | viability, T/C [34] 32.2% | viability, T/C [35] 19.8%
347 nM: IC50 [2]
178 nM: IC50 [5]
298 nM: IC50 [3]

CC1COCCN1c1cc(C2(S(C)(=N)=O)CC2)nc(-c2ccnc3[nH]ccc23)n1 (configuration not stated)
inactive: viability, T/C (compound 0.0316 µM) 93.4% and 101% and 98.8% | viability, T/C (compound 0.1 µM) 106% and 102% and 113% | viability, T/C (compound 0.316 µM) 99.9% and 101% and 88.2% | viability, T/C (compound 1 µM) 108% and 106% and 115% | viability, T/C (compound 3.16 µM) 125% and 124% and 123% | viability, T/C (compound 10 µM) 24.9% and 56.9% and 59.1%
7020 nM and > 10000 nM: IC50 (curve of compound)

CC1COCCN1c1cc(C2(S(C)(=N)=O)CC2)nc(-c2ccnc3[nH]ccc23)n1 (configuration not stated) + CC(CO)NC(=O)c1cc(-c2ccc(Cl)cc2)nn(-c2cnn(C)c2)c1=O
> 10000 nM: IC50 [1] | IC50 [2] | IC50 [3] | IC50 [4] | IC50 [5]
inactive: viability, T/C [8] 90.6% | viability, T/C [9] 88.8% | viability, T/C [26] 92.3% | viability, T/C [27] 92.9% | viability, T/C [36] 134% | viability, T/C [37] 68.3% | viability, T/C [12] 92.2% | viability, T/C [13] 88.2% | viability, T/C [28] 95.2% | viability, T/C [29] 112% | viability, T/C [38] 136% | viability, T/C [39] 75.4% | viability, T/C [16] 108% | viability, T/C [17] 100% | viability, T/C [30] 108% | viability, T/C [31] 111% | viability, T/C [40] 123% | viability, T/C [41] 60.8% | viability, T/C [20] 93.9% | viability, T/C [21] 98.7% | viability, T/C [32] 107% | viability, T/C [33] 110% | viability, T/C [42] 123% | viability, T/C [43] 58.9% | viability, T/C [24] 98.6% | viability, T/C [25] 94.9% | viability, T/C [34] 81% | viability, T/C [35] 95.9% | viability, T/C [44] 104% | viability, T/C [45] 75.2%

Nc1ccccc1NC(=O)c1ccc(CNC(=O)OCc2cccnc2)cc1 + Cc1cncc(-c2nc(NCCc3c[nH]c4ccccc34)c3ncn(C(C)C)c3n2)c1
2660 nM: IC50 [1]
< 31.6 nM: IC50 [5]
2010 nM: IC50 [3]
inactive: viability, T/C [8] 88.7% | viability, T/C [9] 81.7% | viability, T/C [26] 76.4% | viability, T/C [27] 74.3% | viability, T/C [36] 45.2% | viability, T/C [12] 86.9% | viability, T/C [13] 83.7% | viability, T/C [28] 69.5% | viability, T/C [29] 76.4% | viability, T/C [38] 40.7% | viability, T/C [16] 88.7% | viability, T/C [17] 87.9% | viability, T/C [30] 78.2% | viability, T/C [31] 73.9% | viability, T/C [40] 35.4% | viability, T/C [20] 82.2% | viability, T/C [21] 73.8% | viability, T/C [32] 63.9% | viability, T/C [33] 26.4% | viability, T/C [42] 22.1% | viability, T/C [43] 5.42%
475 nM: IC50 [4]
2310 nM: IC50 [2]
active: viability, T/C [37] 5.46% | viability, T/C [39] 5.76% | viability, T/C [41] 4.53% | viability, T/C [24] 7.49% | viability, T/C [25] 5.93% | viability, T/C [34] 0.88% | viability, T/C [35] 0.3% | viability, T/C [44] 0.17% | viability, T/C [45] 0.17%

CCc1c2c(nc3ccc(O)cc13)-c1cc3c(c(=O)n1C2)COC(=O)[C@]3(O)CC + Cc1cncc(-c2nc(NCCc3c[nH]c4ccccc34)c3ncn(C(C)C)c3n2)c1
active: viability, T/C (second compound 0.1 µM, first compound 0.03 µM) 9.21% | viability, T/C (second compound 0.1 µM, first compound 0.0949 µM) 6.44% | viability, T/C (second compound 0.1 µM, first compound 0.3 µM) 3.75% | viability, T/C (second compound 0.316 µM, first compound 0.03 µM) 10% | viability, T/C (second compound 0.316 µM, first compound 0.0949 µM) 6.31% | viability, T/C (second compound 0.316 µM, first compound 0.3 µM) 4.22% | viability, T/C (second compound 1 µM, first compound 0.03 µM) 9.74% | viability, T/C (second compound 1 µM, first compound 0.0949 µM) 6.96% | viability, T/C (second compound 1 µM, first compound 0.3 µM) 4.13% | viability, T/C (second compound 3.16 µM, first compound 0.00949 µM) 10.7% | viability, T/C (second compound 3.16 µM, first compound 0.03 µM) 4.55% | viability, T/C (second compound 3.16 µM, first compound 0.0949 µM) 5.79% | viability, T/C (second compound 3.16 µM, first compound 0.3 µM) 3.2% | viability, T/C (second compound 10 µM, first compound 0.000949 µM) 3.26% | viability, T/C (second compound 10 µM, first compound 0.003 µM) 2.2% | viability, T/C (second compound 10 µM, first compound 0.00949 µM) 3.05% | viability, T/C (second compound 10 µM, first compound 0.03 µM) 0.55% | viability, T/C (second compound 10 µM, first compound 0.0949 µM) 1.43% | viability, T/C (second compound 10 µM, first compound 0.3 µM) 1.83%
1.09 nM: IC50 [4]
2.9 nM: IC50 [1]
1.81 nM: IC50 [3]
< 0.949 nM: IC50 [5]
1.98 nM: IC50 [2]
inactive: viability, T/C (second compound 0.1 µM, first compound 0.000949 µM) 99.6% | viability, T/C (second compound 0.1 µM, first compound 0.003 µM) 48.6% | viability, T/C (second compound 0.1 µM, first compound 0.00949 µM) 12.1% | viability, T/C (second compound 0.316 µM, first compound 0.000949 µM) 76.5% | viability, T/C (second compound 0.316 µM, first compound 0.003 µM) 35% | viability, T/C (second compound 0.316 µM, first compound 0.00949 µM) 9.9% | viability, T/C (second compound 1 µM, first compound 0.000949 µM) 72.3% | viability, T/C (second compound 1 µM, first compound 0.003 µM) 32.6% | viability, T/C (second compound 1 µM, first compound 0.00949 µM) 11.4% | viability, T/C (second compound 3.16 µM, first compound 0.000949 µM) 54.2% | viability, T/C (second compound 3.16 µM, first compound 0.003 µM) 22.2%
